The source of these data is patent US7678390B2, “Carbon monoxide as a biomarker and therapeutic agent” (priority 1999, dated 2010).

Marks after values point to notes of the source that are not given here.

One may read the inhibition as the share of the control response that was lost under treatment.

Assay [1] has as its system rat pulmonary vascular smooth muscle cells. The assay can be described thus: cGMP radioimmunoassay in vascular smooth muscle cells. The assay is classed as cell-based. Conditions: 2 h. The text has this: (§1) Animals. Male C57BL/6 and IL-10 (−/−) mice were purchased from Jackson Laboratory (Bar Harbor, Me.), and allowed to acclimate for one week with rodent chow and water ad libitum. The MKK (−/−) mice were generated as previously described [Lu, et al., EMBO J. 18:1845-1857 (1999)]. Wild type littermates were used as controls. All animals were housed in accordance with guidelines from the American Association for Laboratory Animal Care and Research Protocols and were approved by the Animal Care and Use Committee of Yale University School of Medicine. Reagents. All reagents were purchased from Sigma Chemical Co. (St Louis, Mo.) unless specified otherwise. Plasmid Construct. Plasmid pSFFV/HO-1 was constructed by insertion of the rat HO-1 cDNA [Shibahara, et al., Proc. Natl. Acad. Sci. USA. 82: 7865-7869 (1985)] downstream of the Friend spleen focus-forming virus 5′ long-terminal repeat in the mammalian expression vector pSFFV/neo [Fuhlbrigge, et al, Proc. Natl. Acad. Sci. USA. 85: 5649-5653 (1988)] (kindly provided by Stanley Korsmeyer). Transfection. […] Gas samples were taken by the analyzer through a port in the top of the chambers at a rate of 1 L/min and analyzed by electrochemical detection, with a sensitivity of 10-600 ppm. Concentration levels were measured hourly and there were no fluctuations in the CO concentrations once the chamber had equilibrated (approximately 5 min). […]

Assay [2] deals with RAW 264.7 macrophages. The assay can be described thus: cGMP radioimmunoassay in macrophages. The assay is classed as cell-based, mouse. Conditions: 2 h. As to the method: Nitrate/Nitrite Analysis. Both analytes were measured in the cell culture media which had been ultrafiltered to remove all proteins greater than 10,000 molecular weight. All samples were than analyzed according to the assay kit protocols. (R & D, Minneapolis, Minn.). cGMP Radioimmunoassay (RIA) in macrophages. Macrophages or vascular smooth muscle cells were exposed to CO (250 ppm) or air. 20 min before the end of the exposure 1 mM of 3-isobutyl-1-methylxanthine (IBMX) was added to the cells to prevent phosphodiesterase degradation of cGMP. After 2 h of exposure, cells were removed from the exposure chamber, rinsed with PBS and then 0.5 ml of 75% EtOH was added to the plate and cells were scraped and disrupted via sonication for 5 s. Samples were then centrifuged at 2000 g for 10 min. Supernatants were transferred to fresh tubes and evaporated to dryness. cGMP concentration in the cell extracts was determined by radioimmunoassay (NEN, Boston, Mass.) according to manufacturer's instructions. cGMP was normalized to protein concentration as determined by Bradford assay. Statistical Analysis. Data are expressed as the mean±SE. Differences in measured variables between experimental and control group were assessed using Student's t tests. Statistical calculations were performed on a Macintosh personal computer using the Statview II Statistical Package (Abacus Concepts, Berkeley, Calif.). […]

For the next assay, the system named is JNK. The assay can be described thus: LPS-induced MAP kinase activation, Western blot (JNK). Conditions: RAW 264.7 macrophages, LPS in the presence of CO. The assay is classed as cell-based, mouse.
Excerpt: as §1
In general terms: In western blotting, separated proteins are transferred to a membrane and probed.

The test system of assay [3] is IL-10(−/−) null mice given LPS. The assay can be described thus: LPS-induced serum TNF-α in IL-10(-/-) null mice. The settings on record: Mus musculus, IL-10(−/−) mice, CO 250 ppm, 1 h, read-out: inhibition of serum TNF-α levels. It is filed as in vivo.
Excerpt: as §1

For a further assay, the system named is ERK1/ERK2. The assay can be described thus: LPS-induced MAP kinase activation, Western blot (ERK1/ERK2). It is filed as cell-based, mouse. Conditions: RAW 264.7 macrophages, LPS in the presence of CO.
Excerpt: as §1

In assay [4] the test system is mice given LPS (wild type). The assay can be described thus: LPS-induced serum cytokines in mice exposed to CO. It is filed as in vivo, mouse. The text has this:
(§2) Animals. Male C57BL/6 and IL-10 (−/−) mice were purchased from Jackson Laboratory (Bar Harbor, Me.), and allowed to acclimate for one week with rodent chow and water ad libitum. The MKK (−/−) mice were generated as previously described [Lu, et al., EMBO J. 18:1845-1857 (1999)]. Wild type littermates were used as controls. All animals were housed in accordance with guidelines from the American Association for Laboratory Animal Care and Research Protocols and were approved by the Animal Care and Use Committee of Yale University School of Medicine. Reagents. All reagents were purchased from Sigma Chemical Co. (St Louis, Mo.) unless specified otherwise. Plasmid Construct. Plasmid pSFFV/HO-1 was constructed by insertion of the rat HO-1 cDNA [Shibahara, et al., Proc. Natl. Acad. Sci. USA. 82: 7865-7869 (1985)] downstream of the Friend spleen focus-forming virus 5′ long-terminal repeat in the mammalian expression vector pSFFV/neo [Fuhlbrigge, et al, Proc. Natl. Acad. Sci. USA. 85: 5649-5653 (1988)] (kindly provided by Stanley Korsmeyer). Transfection. Stable transfections were carried out by the calcium phosphate precipitation technique as previously described [Alam, J., J. Biol. Chem. 269: 25049-25056 (1994)]. Briefly, RAW cells were plated (1×10^6/10 cm plate) and 16 h later, transfected with […] of pSFFV/neo or pSFFV/HO-1. Cells were exposed to the DNA-CaPO4 precipitate for 6 h, shocked by a 1 min treatment with glycerol in phosphate-buffered saline and cultured for an additional 24 h in complete medium before addition of G418. Transfectants were selected over a 3-week period in the presence of G418 (up to […]) and individual clones were isolated by limited dilution. Cell Culture Experimentation. RAW 264.7 mouse peritoneal macrophages were purchased from […] (Rockville, Md.) and primary culture of rat pulmonary vascular smooth muscle cells were harvested from male Sprague Dawley rats (250-300 g) as previously described [Gunther, et al., J. Cell. Biol. 92: 289-298 (1982).]. Both cell types were grown in DMEM containing 10% FBS and gentamicin ([…]) in a humidified atmosphere of 5% CO2/balanced air or 250 ppm CO/5% CO2/balanced air. After a 2 h pretreatment with either CO or air, LPS ([…]) or sterile saline was added to the culture media and the culture plates were returned to the chamber(s). At various time points, cell plates were removed from the chamber to collect media and/or cells for Western analysis. CO Exposures. Mice or macrophages were exposed to compressed air or 250 ppm CO. For cell culture experiments, 5% CO2 was also present for buffering requirements. CO at a concentration of 1% (10,000 ppm) in compressed air was mixed with compressed air with or without CO2 in a stainless steel mixing cylinder before delivery into the exposure chamber. Flow into the 3.70-ft^2 plexiglass animal chamber was maintained at 12 L/min and into the 1.2 ft^2 cell culture chamber at a flow of 2 L/min. The cell culture chamber was humidified and maintained at 37° C. A CO analyzer (Interscan, Chatsworth, Calif.) was used to measure CO levels continuously in the chambers. Gas samples were taken by the analyzer through a port in the top of the chambers at a rate of 1 L/min and analyzed by electrochemical detection, with a sensitivity of 10-600 ppm. Concentration levels were measured hourly and there were no fluctuations in the CO concentrations once the chamber had equilibrated (approximately 5 min). Animal Experimentation. Mice were prebled from the retroorbital sinus (0.25 ml) and then exposed to CO (250 ppm) or room air for 1 h prior to administration of LPS (1 mg/kg, i.p.), E. coli serotype O127:B8. 1 and 16 h thereafter, they were removed from the exposure apparatus individually and a blood sample was obtained via the retroorbital sinus. After the blood collection, the mice were immediately returned to the exposure chamber. […]

In assay [5] the test system is RAW 264.7 macrophages. Put plainly: LPS-induced cytokine production in macrophages (ELISA, Western). It is filed as cell-based, mouse. The settings on record: for TNF-α: RAW 264.7 macrophages.
Excerpt: as §2
On the technique in general: In an ELISA, binding on a coated surface is turned into a signal by an enzyme label.

`[C-]#[O+]` [CO, carbon monoxide]: the cGMP in assay [1] (VSM (vascular smooth muscle cells), CO 250 ppm) is 8.1 ± 2^c pmol/mg protein; in the assay on RAW 264.7 macrophages [2] (CO 250 ppm), 3.95 ± 0.6 pmol/mg protein. Moreover, the “increase in cGMP content” value in assay [1] (smooth muscle cells, 250 ppm CO) is on record as 16 fold. Also, the “increase in cGMP” value in the assay with RAW 264.7 macrophages [2] (250 ppm CO) is reported as “no significant increase”. The “LPS-induced JNK MAP kinase activation” value in the assay with JNK is given as “not affected”. Besides, the inhibition at 250 ppm in assay [3] was found to be 66%; in assay [4] (Mus musculus, wild type controls, LPS, CO 250 ppm, 1 h, read-out: inhibition of serum TNF-α levels), 73%. Moreover, the “LPS-induced ERK1/ERK2 MAP kinase activation” value in the assay on ERK1/ERK2 is recorded as “not affected”. The “TNF-α or IL-10 production without LPS” value in assay [4] (CO (250 ppm) alone, MKK3(−/−) or wild type(+/+) mice) is “no effect”. The “IL-10 in response to LPS in vivo” value in assay [4] (LPS 1 mg/kg, mice, CO 250 ppm) is on record as “augmentation”. In addition, in assay [4] (LPS 1 mg/kg, mice, dose-dependent), the “EC50 for attenuation of LPS-induced TNF-α production in vivo” value is given as 69.9 ppm. Further, the “LPS-induced TNF-α production in vivo” value in assay [4] (LPS 1 mg/kg, mice, in the presence of CO) is on record as “significant attenuation”. Moreover, the “LPS-induced serum TNF-α production” value in assay [4] (wild type(+/+) littermates, LPS 1 mg/kg, 250 ppm CO) is given as “attenuated levels”. The “LPS-induced IL-10 levels” value in assay [4] (wild type(+/+) mice, LPS 1 mg/kg, 250 ppm CO) is recorded as “augmented”. Also, the “LPS-induced TNF-α production (ELISA)” value in the assay with RAW 264.7 macrophages [5] (CO 250 ppm) is on record as “significantly attenuated levels”. Further, the “LPS-induced MIP-2” value in the assay with RAW 264.7 macrophages [5] (LPS, CO 250 ppm) was “not affecting”. In the assay with RAW 264.7 macrophages [5] (LPS, CO (data not shown)), the “LPS-induced IFN-g” value is given as “not affecting”. Further, the “LPS-induced JE” value in the assay with RAW 264.7 macrophages [5] (LPS, CO (data not shown)) is “not affecting”. Further, the “LPS-induced KC” value in the assay on RAW 264.7 macrophages [5] (LPS, CO (data not shown)) is recorded as “not affecting”. Moreover, the “LPS-induced accumulation of IL-10” value with RAW 264.7 macrophages [5] (LPS, CO at 250 ppm) is on record as “significantly augmented”. The “inhibition of TNF-α production in the media by ELISA” value with RAW 264.7 macrophages [5] (RAW 264.7 cells, LPS in the presence of CO) is recorded as above 80%. In addition, the TNF-α with RAW 264.7 macrophages [5] (with LPS) was 230 ± 40^b pg/ml; in the assay with RAW 264.7 macrophages [5] (without LPS) it was 15 ± 5 pg/mL. For the same compound, in the assay on RAW 264.7 macrophages [5] (cell lysates and media, LPS in the presence of CO), the “TNF-α protein expression by Western blot” value is reported as “decreased TNF-α protein expression”.
